Experimental data from PubChem BioAssay AID330 (DTP/NCI, 2004).
Values joined by “and” are separate entries in the source; they are usually repeats but may differ in a detail not shown here. Equal values may be shown once. Toxic doses and inconclusive results are not listed. How the source made its calls: active means survival T/C of 150% or more; inactive means T/C below 125% in these data.

Test system: P388 leukemia ip, CD2F1 mice, survival T/C
Experiment: NCI In Vivo Anticancer Drug Screen. Data for tumor model P388 Leukemia (intraperitoneal) in CD2F1 (CDF1) mice
Conditions: endpoint: median survival time, higher = longer survival
Summary of the method: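 Mice carrying the transplanted tumor received test compound or vehicle. Survival was recorded in each group, and the value is the treated-group measurement divided by that of the vehicle-treated control group.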

[1] = dose: 50.0 mg/kg/injection, schedule: Q01DX005 (ip), vehicle: Klucel (hydroxypropylcellulose) (HPC)
[2] = dose: 100.0 mg/kg/injection, schedule: Q01DX005 (ip), vehicle: Klucel (hydroxypropylcellulose) (HPC)
[3] = dose: 200.0 mg/kg/injection, schedule: Q01DX005 (ip), vehicle: Klucel (hydroxypropylcellulose) (HPC)
[4] = dose: 50.0 mg/kg/injection, schedule: Q01DX009 (ip), vehicle: saline with Tween-80
[5] = dose: 100.0 mg/kg/injection, schedule: Q01DX009 (ip), vehicle: saline with Tween-80
[6] = dose: 200.0 mg/kg/injection, schedule: Q01DX009 (ip), vehicle: saline with Tween-80
[7] = dose: 100.0 mg/kg/injection, schedule: Q04DX003 (ip), vehicle: saline with Tween-80
[8] = dose: 50.0 mg/kg/injection, schedule: Q01DX005 (ip), vehicle: saline with Tween-80
[9] = dose: 100.0 mg/kg/injection, schedule: Q01DX005 (ip), vehicle: saline with Tween-80
[10] = dose: 200.0 mg/kg/injection, schedule: Q01DX005 (ip), vehicle: saline with Tween-80

Measured: T/C

COc1c2c(cc3c1-c1c(cc4c(c1OC)OCO4)CC(C)C(C)C3)OCO2 (stereo unspecified)
inactive: dose: 13.75 mg/kg/injection, schedule: Q01DX005 (ip), vehicle: Klucel (hydroxypropylcellulose) (HPC) 95 % of control | dose: 27.5 mg/kg/injection, schedule: Q01DX005 (ip), vehicle: Klucel (hydroxypropylcellulose) (HPC) 98 % of control | dose: 55.0 mg/kg/injection, schedule: Q01DX005 (ip), vehicle: Klucel (hydroxypropylcellulose) (HPC) 98 % of control | dose: 110.0 mg/kg/injection, schedule: Q01DX005 (ip), vehicle: Klucel (hydroxypropylcellulose) (HPC) 90 % of control

CCSC(CCC(NC(C)=O)C(=O)O)SCC (stereo unspecified)
inactive: [1] 98 % of control | [2] 99 % of control | [3] 91 % of control

CCCCCCCCCCCCCCCC[n+]1cccc(C(=O)NCO)c1
inactive: dose: 6.25 mg/kg/injection, schedule: Q01DX009 (ip), vehicle: saline with Tween-80 100 % of control | dose: 12.5 mg/kg/injection, schedule: Q01DX009 (ip), vehicle: saline with Tween-80 104 % of control | dose: 25.0 mg/kg/injection, schedule: Q01DX009 (ip), vehicle: saline with Tween-80 104 % of control

CCN(CC)C(=S)C(C)=C(Sc1ccccc1)Sc1ccccc1
inactive: [1] 100 % of control | [2] 99 % of control | [3] 99 % of control

c1ccc2c(c1)CC1ON3CCc4ccccc4C3C21 (stereo unspecified)
inactive: [4] 97 % of control | [5] 94 % of control | [6] 92 % of control

Cc1ccccc1N1CCN(c2ccccc2C)C1=C1N(c2ccccc2C)CCN1c1ccccc1C
inactive: dose: 85.0 micrograms/kg/injection, schedule: Q01DX009 (ip), vehicle: DMSO 101 % of control | dose: 190.0 micrograms/kg/injection, schedule: Q01DX009 (ip), vehicle: DMSO 93 % of control | dose: 380.0 micrograms/kg/injection, schedule: Q01DX009 (ip), vehicle: DMSO 93 % of control

CC1CN(C(=O)Nc2ccc(Cl)c(Cl)c2)CC(C)O1 (stereo unspecified)
inactive: dose: 6.25 mg/kg/injection, schedule: Q01DX009 (ip), vehicle: saline 100 % of control | dose: 12.5 mg/kg/injection, schedule: Q01DX009 (ip), vehicle: saline 98 % of control | dose: 25.0 mg/kg/injection, schedule: Q01DX009 (ip), vehicle: saline 86 % of control | [6] 100 % of control

c1ccc(CNc2cccc(NCc3ccccn3)n2)nc1
inactive: [1] 101 % of control | [2] 95 % of control | [3] 108 % of control

CC(=O)Oc1cccc(C#N)c1
inactive: [7] 100 % of control | dose: 200.0 mg/kg/injection, schedule: Q04DX003 (ip), vehicle: saline with Tween-80 100 % of control | dose: 400.0 mg/kg/injection, schedule: Q04DX003 (ip), vehicle: saline with Tween-80 104 % of control

O=C(N1CCC(CCN2CCCC2)CC1)C(O)(c1ccccc1)c1ccccc1
inactive: dose: 25.0 mg/kg/injection, schedule: Q04DX002 (ip), vehicle: saline 107 % of control | dose: 50.0 mg/kg/injection, schedule: Q04DX002 (ip), vehicle: saline 107 % of control | dose: 100.0 mg/kg/injection, schedule: Q04DX002 (ip), vehicle: saline 106 % of control and 97 % of control

CNC(=O)NCCCCCCNC(=O)NC
inactive: [1] 99 % of control and 95 % of control | [2] 87 % of control and 95 % of control | [3] 89 % of control

Nc1ccc2oc3cccnc3c2c1
inactive: dose: 100.0 mg/kg/injection, schedule: Q04DX003 (ip), vehicle: saline 104 % of control | dose: 200.0 mg/kg/injection, schedule: Q04DX003 (ip), vehicle: saline 111 % of control | dose: 400.0 mg/kg/injection, schedule: Q04DX003 (ip), vehicle: saline 102 % of control

CC(=O)OCN(C)N=Nc1ccc(C(N)=O)cc1
inactive: dose: 60.0 mg/kg/injection, schedule: Q01DX005 (ip), vehicle: Klucel (hydroxypropylcellulose) (HPC) 92 % of control | dose: 120.0 mg/kg/injection, schedule: Q01DX005 (ip), vehicle: Klucel (hydroxypropylcellulose) (HPC) 95 % of control | dose: 240.0 mg/kg/injection, schedule: Q01DX005 (ip), vehicle: Klucel (hydroxypropylcellulose) (HPC) 95 % of control

CC(=O)c1c(OCC(O)CNC(C)C)ccc2c(C)cc(=O)oc12 (stereo unspecified)
inactive: [8] 100 % of control | [9] 92 % of control

CCCCCCCCC#CC(=O)O
inactive: [4] 94 % of control | [5] 95 % of control | [6] 86 % of control

O=c1c(=O)c2cc(O)ccc12
inactive: [8] 109 % of control | [9] 105 % of control | [10] 100 % of control

c1cc(Cc2ccsc2)cs1
inactive: dose: 60.0 mg/kg/injection, schedule: Q01DX005 (ip), vehicle: saline with Tween-80 104 % of control | dose: 120.0 mg/kg/injection, schedule: Q01DX005 (ip), vehicle: saline with Tween-80 104 % of control | dose: 240.0 mg/kg/injection, schedule: Q01DX005 (ip), vehicle: saline with Tween-80 106 % of control

Nc1cc(Nc2cccc(Cl)c2)nc(N)n1
inactive: dose: 50.0 mg/kg/injection, schedule: Q04DX003 (ip), vehicle: saline with Tween-80 87 % of control | [7] 91 % of control

Cc1cn2c(n1)sc1ccccc12
inactive: [8] 96 % of control | [9] 95 % of control | [10] 95 % of control

CC(CC(=O)c1ccccc1)=Nc1ccccc1
inactive: dose: 100.0 mg/kg/injection, schedule: Q01DX001 (ip), vehicle: saline sonified 110 % of control | dose: 200.0 mg/kg/injection, schedule: Q01DX001 (ip), vehicle: saline sonified 100 % of control | dose: 400.0 mg/kg/injection, schedule: Q01DX001 (ip), vehicle: saline sonified 100 % of control

O=C(Oc1ccc[nH]c1=O)C1CCC1
inactive: [1] 102 % of control and 92 % of control | [2] 102 % of control and 90 % of control | [3] 100 % of control and 91 % of control | dose: 400.0 mg/kg/injection, schedule: Q01DX005 (ip), vehicle: Klucel (hydroxypropylcellulose) (HPC) 100 % of control and 103 % of control

N#CC1=C(O)/C(=C\c2ccc(Cl)cc2)N=C1N
inactive: [8] 88 % of control | [9] 91 % of control | [10] 94 % of control

COc1cc(O)c2c(=O)c3c(O)c(OC4OC(COC5OC(C)C(OC(C)=O)C(O)C5O)C(O)C(O)C4O)ccc3oc2c1 (stereo unspecified)
inactive: dose: 1.5 mg/kg/injection, schedule: Q01DX009 (ip), vehicle: saline 100 % of control | dose: 3.0 mg/kg/injection, schedule: Q01DX009 (ip), vehicle: saline 100 % of control | dose: 6.0 mg/kg/injection, schedule: Q01DX009 (ip), vehicle: saline 107 % of control | dose: 12.0 mg/kg/injection, schedule: Q01DX009 (ip), vehicle: saline 103 % of control

COCN1C(=O)CN=C(c2ccccc2)c2cc(NO)ccc21
inactive: dose: 12.5 mg/kg/injection, schedule: Q01DX009 (ip), vehicle: Klucel (hydroxypropylcellulose) (HPC) 105 % of control | dose: 25.0 mg/kg/injection, schedule: Q01DX009 (ip), vehicle: Klucel (hydroxypropylcellulose) (HPC) 105 % of control | dose: 50.0 mg/kg/injection, schedule: Q01DX009 (ip), vehicle: Klucel (hydroxypropylcellulose) (HPC) 100 % of control and 106 % of control

CC(=O)c1ccc2c(c1)NC(=O)CC(C)N2 (stereo unspecified)
inactive: [1] 99 % of control | [2] 99 % of control | [3] 103 % of control

COc1ccccc1N/N=c1\c2nc3ccccc3nc1n(-c1ccccc1C)c(=S)n2-c1ccc(Cl)cc1
inactive: [8] 88 % of control | [9] 94 % of control | [10] 103 % of control

N#Cc1ccccc1Cl
inactive: [4] 100 % of control | [5] 101 % of control | [6] 98 % of control

CC(C)CCC[C@@H](C)[C@H]1CC[C@H]2[C@@H]3CC=C4C[C@@H](OC(=O)Cc5ccc(N(CCCl)CCCl)cc5)CC[C@]4(C)[C@H]3CC[C@]12C
inactive: dose: 50.0 mg/kg/injection, schedule: Q01DX010 (ip), vehicle: Klucel (hydroxypropylcellulose) (HPC) 101 % of control | dose: 100.0 mg/kg/injection, schedule: Q01DX010 (ip), vehicle: Klucel (hydroxypropylcellulose) (HPC) 99 % of control | dose: 200.0 mg/kg/injection, schedule: Q01DX010 (ip), vehicle: Klucel (hydroxypropylcellulose) (HPC) 101 % of control | dose: 400.0 mg/kg/injection, schedule: Q01DX010 (ip), vehicle: Klucel (hydroxypropylcellulose) (HPC) 105 % of control | dose: 800.0 mg/kg/injection, schedule: Q01DX010 (ip), vehicle: Klucel (hydroxypropylcellulose) (HPC) 92 % of control

O=C(O)C(S(=O)(=O)O)S(=O)(=O)O
inactive: dose: 1.56 mg/kg/injection, schedule: Q01DX001 (ip), vehicle: saline with Tween-80 103 % of control | dose: 3.13 mg/kg/injection, schedule: Q01DX001 (ip), vehicle: saline with Tween-80 100 % of control | dose: 6.25 mg/kg/injection, schedule: Q01DX001 (ip), vehicle: saline with Tween-80 100 % of control

O=S(=O)(F)c1ccc2nc(-c3cccc(Sc4ccccc4)c3)cc(Cl)c2c1
inactive: [5] 100 % of control | [6] 95 % of control | dose: 400.0 mg/kg/injection, schedule: Q01DX009 (ip), vehicle: saline with Tween-80 95 % of control

Nc1nc(Nc2ccccc2)nc(-c2ccccc2)n1
inactive: [8] 100 % of control | [9] 86 % of control
